Reference: patent US8551997B2, “Structural-based inhibitors of the glutathione binding site in aldose reductase, methods of screening therefor and methods of use” (The Board of Regents of the University of Texas System, priority 2004, dated 2013)
Where two headings read alike, the source gives them in different places.

Experiments:
C57BL/6 mice = assay: LPS-induced cardiac dysfunction, M-mode echocardiography; format: in vivo, mouse
Caco-2 cells [1] = assay: PGE2 assay in Caco-2 cells; format: cell-based, human
Description: (§1) Caco-2 cells were plated in 6 well plates at a density of 2×10^5 cells/well. After 24 hours, the medium was replaced with fresh medium containing 0.1% serum with or without, sorbinil (20 μM) followed by treatment with either 10 ng/ml BFGF or PDGF, for another 24 h. HT29 cells were plated in 6 well plate at a density of 2×10^5 cells/well. After 24 hours, medium was replaced with serum-free medium with or without, sorbinil or zopolrestat (20 μM) followed by treatment with either EGF (5 ng/ml) or BFGF (10 ng/ml) for another 24 h. The medium from each cell lines was collected from each well and analyzed for PGE2 by using an Enzyme Immuno Assay kit according to the manufacturer's instructions (Cayman Chemical Co., Inc.).
(§2) Briefly, 50 μl of diluted standard/sample were pipetted into a pre-coated goat polyclonal anti-mouse IgG 96-well plate. Aliquots (50 μl) of a PGE2 monoclonal antibody and PGE2 acetylcholine esterase (AchE) conjugate, (PGE2 tracer) were added to each well and allowed to incubate at 4° C. for 24 h. After incubation, the wells were washed five times with wash buffer containing 0.05% Tween-20, followed by the addition of 200 μl of Ellman's reagent containing acetylthiocholine and 5,5′-dithio-bis-(2-nitrobenzoic acid). Samples were read after 60 min at 412 nm with an ELISA reader. In this procedure the intensity of yellow color, is proportional to the amount of PGE2 tracer bound to the well and is inversely proportional to the amount of free PGE2 present in the well during incubation.

Caco-2 cells [2] = assay: Western blot of Cox-1 and Cox-2 in Caco-2 cells; format: cell-based, human
Description: To examine expression of any of Cox-1, Cox-2, phospho-PKC-2, GAPDH, E2F1, Cyclin D1, Cyclin E, and iNOS proteins, Western blot analyses were carried by known methods (15). Equal amounts of protein from cell extracts were subjected to 12% SDS-PAGE followed by transfer of proteins to nitrocellulose filters, probing with the indicated antibodies, and the antigen-antibody complex was detected by enhanced chemiluminescence (Pierce, Piscataway, N.J., USA).

HT29 cells [3] = assay: HT29 cell proliferation, MTT assay; format: cell-based; settings: inhibitor alone
Description: HT29 cells were grown to confluence in McCoy's medium and harvested and plated 2,500 per well in a 96-well plate. Subconfluent cells were growth arrested in 0.1% FBS with or without AR inhibitor sorbinil or zopolrestat (20 μM). After 24 hours, EGF (5 ng/ml) or BFGF (10 ng/ml) was added to the medium and the cells were incubated for another 24 hours. Cells incubated with the AR inhibitors alone served as control. Cell viability was determined by an MTT assay.

HT29 cells [4] = assay: PGE2 assay in HT29 cells; format: cell-based; settings: inhibitor alone
Description: as §1
as §2, with “In this procedure the intensity of yellow color, is proportional to the amount of PGE2 tracer bound to the well and is inversely proportional to the amount of free PGE2 present in the well during incubation.” left out

Caco-2 cells [5] = assay: NF-kB-dependent reporter SEAP expression assay; format: cell-based, human
Description: Caco-2 cells (1.5×10^5 cells/well) were plated in six-well plates and after attachment overnight, were serum-starved in optiMEM medium for 24 h with or without aldose reductase inhibitor, sorbinil (20 μM) and were transiently transfected with pNF-kB-SEAP construct or control plasmid pTALSEAP DNA (Clontech, USA) using the lipofectamine plus reagent. After 6 h of transfection, cells were treated either with 10 ng/ml BFGF or PDGF for 48 h in DMEM medium containing 0.1% FBS. The cell culture medium was then harvested and analyzed for SEAP activity, essentially as described by the manufacturer (Clontech Laboratories, Palo Alto, Calif.), using a 96-well chemiluminescence plate reader and Kodak Image Station 2000R.

A549 cells = assay: Flowcytometric cell cycle analysis, A549; format: cell-based, human; settings: 10% FBS
Description: The Caco-2 and A549 cells were grown separately in 6 well plates at a density of approximately 1.5×10^5 cells/well. Growth-arrested Caco-2 cells were pre-incubated with or without sorbinil 20 μM or carrier for 24 h and then stimulated with either 10 ng/ml BFGF or PDGF for another 24 h. After 24 hrs A549 cells were incubated with or without sorbinil at different concentrations for another 24 h.
The Caco-2 and A549 cells were then washed with PBS and harvested by trypsinization. Cellular DNA was stained with low and high salt solutions. Briefly, cells were resuspended in 250 μl of solution A, low salt stain, containing polyetheleneglycol (30 mg/ml), propidium iodide (0.05 mg/ml), triton-x-100 (1 μl/ml), sodium citrate 4 mM, RNAse A 10 μg/ml and incubated at 37° C. for 20 min followed by the addition of 250 μl of solution B, high salt stain containing 400 mM NaCl instead of 4 mM sodium citrate in solution A, and incubated overnight at 4° C. Cell cycle analysis was performed with a minimum of 10,000 events per analysis by using FACScan flow cytometer (Becton, Dickinson and Co., San Jose, Calif., USA).

mice = settings: for survival: sorbinil pre-treatment
Description: Therefore increasing doses of LPS was administered to determine the dose at which fifty percent lethality occurred (LD50) in the presence or absence of aldose reductase inhibitor (ARI) in order to determine if ARI protected mice for LPS-induced death (FIG. 7D).

[6] = sorbinil 24 h, GS-DHN-ester 24 h

Substance: (S)-6-fluorospiro[chroman-4,4′-imidazolidine]-2,5′-dione [sorbinil]
- percent fractional shortening (FS %) (C57BL/6 mice; at 8 h after LPS, pretreated with sorbinil): recovered significantly
- general activity level of LPS-exposed mice (C57BL/6 mice; within 24 h): normal grooming and other activities
- prevention of PGE2 production induced by BFGF and PDGF (Caco-2 cells [1]; sorbinil 20 μM, 10 ng/ml BFGF or PDGF, 24 h): > 90%
- GS-DHN-induced PGE2 production (Caco-2 cells [1]; [6]): had no effect
- HNE and GS-HNE-induced PGE2 production (Caco-2 cells [1]; sorbinil 24 h, aldehydes 24 h): significantly prevented
- constitutive levels of PGE2 (Caco-2 cells [1]; sorbinil alone): did not inhibit
- growth factor-induced Cox-2 protein (Caco-2 cells [2]): attenuated
- levels of constitutive Cox-1 protein (Caco-2 cells [2]): not affected
- GS-DHN-induced Cox-2 expression (Caco-2 cells [2]; [6]): had no effect
- HNE and GS-HNE-induced Cox-2 expression (Caco-2 cells [2]; sorbinil 24 h, aldehydes 24 h): significantly prevented
- HT29 cells proliferation (HT29 cells [3]): did not cause any effect
- constitutive levels of PGE2 (HT29 cells [4]): did not inhibit
- inhibition of BFGF and PDGF-induced NF-κB-dependent reporter (SEAP) activation (Caco-2 cells [5]; sorbinil 20 μM): > 60%
- NF-κB-SEAP activity (Caco-2 cells [5]; sorbinil alone): did not affect
- percentage of cells in G1 (A549 cells; 25 μM): 58.79%
- percentage of cells in G2 (A549 cells; 25 μM): 6.06%
- percentage of cells in S (A549 cells; 25 μM): 35.14%
- percentage of cells in G1 (A549 cells; 50 μM): 59.24%
- percentage of cells in G2 (A549 cells; 50 μM): 5.47%
- percentage of cells in S (A549 cells; 50 μM): 35.29%
- percentage of cells in G1 (A549 cells; 75 μM): 64.21%
- percentage of cells in G2 (A549 cells; 75 μM): 5.55%
- percentage of cells in S (A549 cells; 75 μM): 30.24%
- percentage of cells in G1 (A549 cells; 100 μM): 65.55%
- percentage of cells in G2 (A549 cells; 100 μM): 4.8%
- percentage of cells in S (A549 cells; 100 μM): 29.75%
- LD50 for LPS with sorbinil post-treatment (mice; sorbinil 2 h after LPS, 48 h survival): 20 mg/kg
- LD50 for LPS with sorbinil pre-treatment (mice; sorbinil 24 h before LPS, 48 h survival): 24 mg/kg
- survival (mice; LPS 14 mg/kg): approximately 90%
- survival (mice; LPS 24 mg/kg): over 60%
